This is an account of results in PubChem BioAssay AID2742 (NMMLSC, 2010).

Calls of active or inactive are those of the source.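 How the source made its calls: active means fitted half-maximal concentration for changing background-corrected GFP signal at or below a set limit; inactive means the rest.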

The subject of assay [1] is S. cerevisiae MEP2-GFP strain, flow cytometry fluorescence, 3 h. The assay can be described thus: modulators of MEP2-GFP levels in yeast, dose response, S. cerevisiae, flow cytometry GFP, MLPCN hits (AID 2742).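 On EC50: curve fit on GFP signal minus compound signal in parental s288c strain lacking GFP.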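 On GFP fluorescence (kMESF), higher = increase: GFP tag reports level of MEP2 protein as a downstream target of TOR signalling.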 In general terms: In flow cytometry, cells or beads pass a laser one at a time.
Assay in assay [2]: as above
Particulars: S. cerevisiae MEP2-GFP strain, flow cytometry fluorescence, 3 h; at 33 µM (top of the series).

Broadly, the EC50 is the concentration giving half of the maximal effect. Turning to `O=C(Oc1ccnc2cc(Cl)ccc12)N1CCCCCC1`, the EC50 in assay [1] was 3860 nM.
Still for that read-out and setting: the same measure for `CNC(CC(=O)c1ccc([N+](=O)[O-])cc1)C(Cl)(Cl)Cl` (centres undefined): 2280 nM; for `Cc1ccc(/C=C/C(=O)c2ccccc(=O)c2O)c(C)c1`: 13700 nM.
As to `CNc1nc(N)c([N+](=O)[O-])c(Nc2cccc(F)c2)n1`, the EC50 in assay [1] is 6850 nM.
Consider `O=C1NC(=O)N(Cc2ccc(F)cc2)C(=O)/C1=C/c1cccs1`, for which the EC50 in assay [1] is 3010 nM.
Same read-out and setting: the result for `CCOC(=O)COc1ccc2ccccc2c1/C=C/[N+](=O)[O-]` reads 12700 nM; that for `CCCCCCCCn1sccc1=O`, 1230 nM; that for `CC1(C)C[C@H]2C=C(C=O)[C@]3(C=O)C[C@]3(C)[C@H]2C1`, 1260 nM.
Still for that read-out and setting: the result for `Nc1ccc(Br)c2c1C(=O)c1ccccc1C2=O` reads 1040 nM.
`CN(C)c1ccc(N=Cc2nc(-c3ccccc3)oc2OC(=O)c2cccc(Cl)c2)cc1`: the GFP fluorescence (kMESF), higher = increase in assay [2] was 3.27 kMESF (inactive).
On to `O=C(NC(=S)NNC(=O)c1cnccn1)c1ccc(Cl)cc1`, for which the GFP fluorescence (kMESF), higher = increase in assay [2] was 3.51 kMESF (inactive).
On the same count and under the same terms, the result for `Cc1cc(C)c(S(=O)(=O)N2CCC(C(=O)NCc3ccc(Cl)cc3Cl)CC2)c(C)c1` reads 4.68 kMESF (inactive); that for `COc1ccc(/C=C/C(=O)C2C(=O)C=C(C)OC2=O)cc1O` (centres undefined), 5.45 kMESF (inactive); that for `Cc1cc(C2CCCCC2)n(O)c(=O)c1`, 5.36 kMESF (inactive).
On the same count and under the same terms, the same measure for `CS(=O)(=O)c1nc(-c2ccccc2)cc(C(F)(F)F)n1`: 7.24 kMESF (inactive); for `Cc1c(Cc2ccccc2)c(NCCN(C)C)n2c(nc3ccccc32)c1C#N`: 4.39 kMESF (inactive).
Turning to `C#CCOCCOCCOCCNc1nc(N2CCN(C(=O)CCCCCCCCCCNC(=O)[C@H](CCCCN)n3cc(CCO)nn3)CC2)nc(N2CCN(C(=O)CCCCCCCCCCNC(=O)[C@H](CCCCN)n3cc(C[C@@H](C)CC)nn3)CC2)n1`, the GFP fluorescence (kMESF), higher = increase in assay [2] was 3.23 kMESF (inactive).
Same read-out and setting: the result for `COC(=O)CCS(=O)(=O)c1nc(-c2ccccc2)cc(C(F)(F)F)n1` reads 6.95 kMESF (inactive).
Same read-out and setting: the same measure for `Cc1ccc(C(=O)O)cc1N=Cc1cc(Br)cc(Br)c1O`: 5.7 kMESF (inactive); for `O=C(NC(=S)Nc1ccc2oc(=O)ccc2c1)c1cccc(Cl)c1`: 1.7 kMESF (inactive).
Same read-out and setting: the result for `COc1ccc(N2C(=O)C(Cl)=C(Oc3cccc(OC)c3)C2=O)cc1` reads 4.18 kMESF (inactive); that for `Nc1ccc2ccc3cccc[n+]3c2c1`, 5.03 kMESF (inactive); that for `Cc1ccc(C(=O)Oc2oc(-c3ccccc3)nc2C=Nc2ccc(N(C)C)cc2)cc1`, 4.19 kMESF (inactive).
Regarding `CC(C)Oc1ccc(C(=O)/C=C2/C(=O)Nc3ccccc32)cc1`, the GFP fluorescence (kMESF), higher = increase in assay [2] was 3.75 kMESF (inactive).
Same read-out and setting: the same measure for `CCOC(=O)/C(=C\c1cn(C)c2ccccc12)[N+](=O)[O-]`: 6.34 kMESF (inactive); for `CCCc1cc(N2CCN(c3ccccn3)CC2)n2nc(C)c(-c3ccccc3)c2n1`: 3.11 kMESF (inactive).
`O=C1NC(=O)C(=Cc2ccc(-c3ccc(Cl)cc3)o2)C(=O)N1`: the EC50 in assay [1] was 1380 nM.
Consider `COc1cc(C=C2C(=O)c3ccccc3C2=O)cc(OC)c1OC`, for which the GFP fluorescence (kMESF), higher = increase in assay [2] was 2.43 kMESF (inactive).
On the same count and under the same terms, the same measure for `CCOc1ccc(C(C)=O)cc1N1C(=O)C2C3C=CC(O3)C2C1=O` (centres undefined): 3.31 kMESF (inactive).
Consider `CCCCc1ccc(/C=C2/C(=O)ON=C2c2ccccc2)s1`, for which the GFP fluorescence (kMESF), higher = increase in assay [2] was 2.26 kMESF (inactive).
Same read-out and setting: the result for `O=C(COc1c(Br)cc(Br)c2cccnc12)N1CCc2ccccc2C1` reads 4.11 kMESF (inactive); that for `COc1cc(SSc2cc(OC)cc([N+](=O)[O-])c2N)c(N)c([N+](=O)[O-])c1`, 5.29 kMESF (inactive); that for `Cc1[nH]c2ccccc2c1C(=O)COC(=O)c1ccc([N+](=O)[O-])s1`, 0.4 kMESF (inactive).
Consider `CCOC(=O)CSC1=NC(=O)/C(=C/c2ccc(Br)cc2)S1`, for which the GFP fluorescence (kMESF), higher = increase in assay [2] was 4.7 kMESF (inactive).
The same measure, in the same setting: the same measure for `O=C1ON=C(c2ccccc2)/C1=C\c1ccco1`: 4.59 kMESF (inactive).
Regarding `COc1ccc(Cl)cc1C(Nc1cccnc1)c1ccc2cccnc2c1O` (centres undefined), in assay [2], the GFP fluorescence (kMESF), higher = increase was 5.91 kMESF (inactive).
The same measure, in the same setting: the same measure for `CCOC(=O)CS(=O)(=O)c1nc(-c2ccc(F)cc2)cc(C(F)(F)F)n1`: 5.21 kMESF (inactive); for `O=C1c2ccccc2C(=O)N1OS(=O)(=O)c1ccccc1`: 3.26 kMESF (inactive).
Same read-out and setting: the same measure for `O=[N+]([O-])c1cc(CN2CCN(c3ccccc3)CC2)c(O)c2ncccc12`: 4.24 kMESF (inactive); for `O=C(Nc1nc2ccc(F)cc2s1)c1ccccn1`: 3.71 kMESF (inactive).
Take `O=C(/C=C/c1ccnc2ccccc12)c1cccs1`: the GFP fluorescence (kMESF), higher = increase in assay [2] was 4.23 kMESF (inactive).
Still for that read-out and setting: the result for `COc1ccc(N2CCN(C(=O)c3ccccc3)CC2)c([N+](=O)[O-])c1` reads 3.33 kMESF (inactive); that for `O=[N+]([O-])c1cnc(Sc2ccncn2)s1`, 3.07 kMESF (inactive); that for `O=C(OCC(=O)N1CCN(C(=O)c2ccco2)CC1)c1cc(-c2ccc(Cl)c(Cl)c2Cl)nc2ccccc12`, 4.51 kMESF (inactive).
As for `Oc1c(I)cc(Cl)c2cccnc12`, in assay [2], the GFP fluorescence (kMESF), higher = increase is 5.67 kMESF (inactive).
Consider `COc1ccc(NC(=O)/C(Cl)=C(/Cl)S(=O)Cc2ccccc2)cn1` (centres undefined), for which, in assay [2], the GFP fluorescence (kMESF), higher = increase is 4.75 kMESF (inactive).
With `Oc1c(C(Nc2nc3ccccc3s2)c2ccco2)ccc2cccnc12` (centres undefined), the GFP fluorescence (kMESF), higher = increase in assay [2] is 5.51 kMESF (inactive).
The same measure, in the same setting: the result for `CN(O)/C=c1/ccc2c(n1)C(=O)C=CC=2` reads 3.88 kMESF (inactive).
Same read-out and setting: the result for `CN1C(=O)/C(=N\OC(=O)c2cccc3ccccc23)c2ccccc21` reads 3.68 kMESF (inactive); that for `O=C(Nc1nnc(-c2ccc(F)cc2)o1)c1cc(Cl)sc1Cl`, 3.38 kMESF (inactive); that for `Cc1nn2c(-c3ccncc3)nnc2c2ccccc12`, 1.97 kMESF (inactive).
On the same count and under the same terms, the result for `N/C(=N\OC(=O)c1cccc(Br)c1)c1ccccc1` reads 2.6 kMESF (inactive).
For the compound `CC(=O)CSc1ncnc2c1cnn2-c1ccccc1`, the GFP fluorescence (kMESF), higher = increase in assay [2] is 2.5 kMESF (inactive).
In the case of `O=C1C=CC(=O)N1N(c1ccccc1)c1ccccc1`, the GFP fluorescence (kMESF), higher = increase in assay [2] was 4.7 kMESF (inactive).
